Measured values taken from patent US20240207292A1, “BORONIC ACID COMPOUNDS, COMPOSITIONS AND METHODS” (Trustees of Tufts College, priority 2021, published 2024).

Tests used:
[1] = molecular target: recombinant human fibroblast activation protein (FAP) (Homo sapiens (Human), UniProt Q12884); assay: In vitro assay fibroblast activation protein IC50 (Example 21); assay type: biochemical
[2] = molecular target: recombinant human prolyl oligopeptidase (PREP) (Homo sapiens (Human), UniProt P48147); assay: In vitro assay prolyl oligopeptidase IC50 (Example 21); assay type: biochemical
[3] = molecular target: recombinant human dipeptidyl peptidase IV (DPPIV) (Homo sapiens (Human), UniProt P27487); assay: In vitro assay dipeptidyl peptidase IV IC50 (Example 21); assay type: biochemical
[4] = Degradation in aqueous solution of pH about 3 during HPLC purification and lyophilization; conditions: during HPLC purification and subsequent lyophilization
[5] = Stability of 6555 with stabilizers over hours without AAPH (50 mM NH4OAc at RT or Ultrapura water at 40° C.); assay type: physicochemical
Source text: The effect of specified sulfur-containing compounds and other stabilizer compounds (including non-sulfur-containing stabilizer compounds) and mixtures of sulfur-containing compounds and non-sulfur-containing stabilizer compounds with the boronic acid compound 6555 (structure shown above) at various pH values.

recombinant human fibroblast activation protein (FAP), sequence (Q12884 whole entry): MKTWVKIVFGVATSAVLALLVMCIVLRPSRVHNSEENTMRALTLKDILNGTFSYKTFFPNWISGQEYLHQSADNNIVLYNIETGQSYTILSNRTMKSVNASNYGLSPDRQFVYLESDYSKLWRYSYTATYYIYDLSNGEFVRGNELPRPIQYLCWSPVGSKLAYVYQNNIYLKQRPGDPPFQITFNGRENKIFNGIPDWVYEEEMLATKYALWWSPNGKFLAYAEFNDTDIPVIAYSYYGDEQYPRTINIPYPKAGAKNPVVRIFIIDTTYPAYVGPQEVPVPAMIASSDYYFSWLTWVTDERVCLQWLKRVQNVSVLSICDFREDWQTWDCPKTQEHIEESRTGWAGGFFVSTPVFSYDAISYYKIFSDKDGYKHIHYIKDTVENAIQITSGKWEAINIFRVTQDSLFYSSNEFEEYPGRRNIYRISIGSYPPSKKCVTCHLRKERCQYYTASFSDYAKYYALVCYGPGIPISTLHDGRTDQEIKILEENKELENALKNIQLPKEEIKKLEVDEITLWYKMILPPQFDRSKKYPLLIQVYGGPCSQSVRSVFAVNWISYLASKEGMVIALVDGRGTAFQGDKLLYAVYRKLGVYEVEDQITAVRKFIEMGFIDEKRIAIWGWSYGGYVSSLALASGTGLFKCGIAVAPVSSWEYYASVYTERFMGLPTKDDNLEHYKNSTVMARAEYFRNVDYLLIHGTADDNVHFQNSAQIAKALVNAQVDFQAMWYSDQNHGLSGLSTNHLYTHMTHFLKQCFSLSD
recombinant human dipeptidyl peptidase IV (DPPIV), sequence (P27487 whole entry): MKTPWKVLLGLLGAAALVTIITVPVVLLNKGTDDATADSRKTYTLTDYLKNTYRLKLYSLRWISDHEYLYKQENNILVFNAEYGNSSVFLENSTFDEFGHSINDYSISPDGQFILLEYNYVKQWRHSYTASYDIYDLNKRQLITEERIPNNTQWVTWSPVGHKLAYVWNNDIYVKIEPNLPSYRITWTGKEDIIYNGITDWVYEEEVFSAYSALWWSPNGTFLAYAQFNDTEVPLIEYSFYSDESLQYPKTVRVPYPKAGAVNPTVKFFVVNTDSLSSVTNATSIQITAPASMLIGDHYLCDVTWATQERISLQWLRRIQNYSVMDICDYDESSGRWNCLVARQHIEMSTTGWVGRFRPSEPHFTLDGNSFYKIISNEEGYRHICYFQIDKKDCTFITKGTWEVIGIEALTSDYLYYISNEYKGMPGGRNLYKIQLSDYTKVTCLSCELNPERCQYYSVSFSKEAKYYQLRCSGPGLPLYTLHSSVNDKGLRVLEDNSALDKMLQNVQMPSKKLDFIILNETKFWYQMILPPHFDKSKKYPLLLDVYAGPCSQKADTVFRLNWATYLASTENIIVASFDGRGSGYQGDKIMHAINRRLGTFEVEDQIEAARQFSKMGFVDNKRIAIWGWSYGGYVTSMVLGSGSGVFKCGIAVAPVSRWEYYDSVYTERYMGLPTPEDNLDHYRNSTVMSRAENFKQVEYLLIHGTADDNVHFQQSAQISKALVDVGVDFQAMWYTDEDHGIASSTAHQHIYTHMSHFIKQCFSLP
recombinant human prolyl oligopeptidase (PREP), sequence (P48147 whole entry): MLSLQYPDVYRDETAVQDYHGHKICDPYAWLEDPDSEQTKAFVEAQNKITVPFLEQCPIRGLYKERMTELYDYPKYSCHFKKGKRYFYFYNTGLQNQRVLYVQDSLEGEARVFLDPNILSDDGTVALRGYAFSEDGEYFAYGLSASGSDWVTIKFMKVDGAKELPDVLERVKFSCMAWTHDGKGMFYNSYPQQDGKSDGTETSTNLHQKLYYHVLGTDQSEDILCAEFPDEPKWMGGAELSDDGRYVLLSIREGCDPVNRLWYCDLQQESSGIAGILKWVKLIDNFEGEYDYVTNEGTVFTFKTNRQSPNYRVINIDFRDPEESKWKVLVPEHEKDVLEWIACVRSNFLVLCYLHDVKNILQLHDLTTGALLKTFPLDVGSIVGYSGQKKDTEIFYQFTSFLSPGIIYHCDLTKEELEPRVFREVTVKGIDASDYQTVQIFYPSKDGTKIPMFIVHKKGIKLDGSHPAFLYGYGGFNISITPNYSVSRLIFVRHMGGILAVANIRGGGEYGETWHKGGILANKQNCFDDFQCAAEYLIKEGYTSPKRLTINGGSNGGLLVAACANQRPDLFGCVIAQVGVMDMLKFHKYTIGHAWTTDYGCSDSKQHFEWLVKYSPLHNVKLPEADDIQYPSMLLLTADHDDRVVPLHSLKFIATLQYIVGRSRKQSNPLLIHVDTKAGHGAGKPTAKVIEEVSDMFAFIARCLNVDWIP

For `C[C@@H](NC(=O)c1ccc(CNC(=O)CN2CCN(CC(=O)O)CCN(CC(=O)O)CCN(CC(=O)O)CC2)cc1)C(=O)N1CCC[C@H]1B(O)O` [compound 6555, DOTA-aminomethyl-Bz-D-Ala-boroPro], the IC50 [1] was 3.8 nM, the IC50 [2] was 870 nM and the IC50 [3] was > 100000 nM. The “degradation in aqueous solution” value [4] was “did not observe any sign of degradation”, the “6555 Remaining (%)” value ([5]; 50 mM NH4OAc, RT, 6 hr, (−) mode, no stabilizer, pH 5.4) was 74.5% and the “6555 Remaining (%)” value ([5]; 50 mM NH4OAc, RT, 6 hr, (−) mode, sodium metabisulfite 5 mM, pH 5.1) was 63.3%. For the same compound, the “6555 Remaining (%)” value ([5]; 50 mM NH4OAc, RT, 7 hr, (−) mode, sodium ascorbate 5 mM, sodium gentisate 2 mM, sodium metabisulfite 5 mM, disodium hydrosulfite 5 mM, pH 5.2) was 77.4%, the “6555 Remaining (%)” value ([5]; 50 mM NH4OAc, RT, 7 hr, (−) mode, sodium metabisulfite 5 mM, disodium hydrosulfite 5 mM, pH 5.1) was 66.9% and the “6555 Remaining (%)” value ([5]; 50 mM NH4OAc, RT, 8 hr, (−) mode, NAM 5 mM, sodium metabisulfite 5 mM, pH 4.9) was 63.2%. For the same compound, the “6555 Remaining (%)” value ([5]; 50 mM NH4OAc, RT, 8 hr, (−) mode, sodium metabisulfite 25 mM, pH 4.2) was 63.2%, the “6555 Remaining (%)” value ([5]; 50 mM NH4OAc, RT, 26 hr, (+) mode, no stabilizer, pH 5.4) was 95.7% and the “6555 Remaining (%)” value ([5]; 50 mM NH4OAc, RT, 26 hr, (+) mode, sodium ascorbate 5 mM, sodium gentisate 2 mM, sodium metabisulfite 5 mM, disodium hydrosulfite 5 mM, pH 5.2) was 96.7%. The “6555 Remaining (%)” value ([5]; 50 mM NH4OAc, RT, 31 hr, (−) mode, no stabilizer, pH 5.4) was 82.2%, the “6555 Remaining (%)” value ([5]; 50 mM NH4OAc, RT, 31 hr, (−) mode, sodium ascorbate 5 mM, sodium gentisate 2 mM, sodium metabisulfite 5 mM, disodium hydrosulfite 5 mM, pH 5.2) was 77.4% and the “6555 Remaining (%)” value ([5]; Ultrapura water, 40° C., 17 hr, (+) mode, no stabilizer, pH 5.2) was 95.4%. For the same compound, the “6555 Remaining (%)” value ([5]; Ultrapura water, 40° C., 17 hr, (+) mode, sodium ascorbate 5 mM, sodium gentisate 2 mM, sodium metabisulfite 5 mM, disodium hydrosulfite 5 mM, pH 5) was 96.1%, the “6555 Remaining (%)” value ([5]; Ultrapura water, 40° C., 18 hr, (+) mode, sodium ascorbate 5 mM, sodium gentisate 2 mM, NAM 5 mM, disodium hydrosulfite 5 mM, pH 5.0) was 96.2% and the “6555 Remaining (%)” value ([5]; Ultrapura water, 40° C., 18 hr, (+) mode, sodium ascorbate 5 mM, sodium gentisate 2 mM, NAM 5 mM, sodium metabisulfite 5 mM, pH 5.1) was 95.6%. The “6555 Remaining (%)” value ([5]; Ultrapura water, 40° C., 27 hr, (−) mode, sodium ascorbate 5 mM, sodium gentisate 2 mM, NAM 5 mM, disodium hydrosulfite 5 mM, pH 5.0) was 85.3%, the “6555 Remaining (%)” value ([5]; Ultrapura water, 40° C., 27 hr, (−) mode, sodium ascorbate 5 mM, sodium gentisate 2 mM, NAM 5 mM, sodium metabisulfite 5 mM, pH 5.1) was 92.8% and the “6555 Remaining (%)” value ([5]; Ultrapura water, 40° C., 28 hr, (−) mode, no stabilizer, pH 5.2) was 83.7%. For the same compound, the “6555 Remaining (%)” value ([5]; Ultrapura water, 40° C., 28 hr, (−) mode, sodium ascorbate 5 mM, sodium gentisate 2 mM, sodium metabisulfite 5 mM, disodium hydrosulfite 5 mM, pH 5.0) was 82.9%, the “6555 Remain (%)” value ([5]; mM: ascorbate 0, gentisate 0, NAM 0, metabisulfite 0, hydrosulfite 0, pH 5.2, 17 hrs, SID 90754) was 95.4% and the “6555 Remain (%)” value ([5]; mM: ascorbate 0, gentisate 0, NAM 0, metabisulfite 0, hydrosulfite 0, pH 5.2, 28 hrs, SID 90768) was 83.7%. For the same compound, the “6555 Remain (%)” value ([5]; mM: ascorbate 0, gentisate 0, NAM 0, metabisulfite 0, hydrosulfite 0, pH 5.4, 6 hrs, SID 90779) was 74.5%, the “6555 Remain (%)” value ([5]; mM: ascorbate 0, gentisate 0, NAM 0, metabisulfite 0, hydrosulfite 0, pH 5.4, 26 hrs, SID 90844) was 95.7% and the “6555 Remain (%)” value ([5]; mM: ascorbate 0, gentisate 0, NAM 0, metabisulfite 0, hydrosulfite 0, pH 5.4, 31 hrs, SID 90853) was 82.2%. For the same compound, the “6555 Remain (%)” value ([5]; mM: ascorbate 0, gentisate 0, NAM 0, metabisulfite 5, hydrosulfite 0, pH 4.9, 8 hrs, SID 90787) was 63.2%, the “6555 Remain (%)” value ([5]; mM: ascorbate 0, gentisate 0, NAM 0, metabisulfite 5, hydrosulfite 0, pH 5.1, 6 hrs, SID 90780) was 63.3% and the “6555 Remain (%)” value ([5]; mM: ascorbate 0, gentisate 0, NAM 0, metabisulfite 5, hydrosulfite 5, pH 5.1, 7 hrs, SID 90783) was 66.9%. For the same compound, the “6555 Remain (%)” value ([5]; mM: ascorbate 0, gentisate 0, NAM 0, metabisulfite 25, hydrosulfite 0, pH 4.2, 8 hrs, SID 90790) was 63.2%, the “6555 Remain (%)” value ([5]; mM: ascorbate 5, gentisate 2, NAM 0, metabisulfite 5, hydrosulfite 5, pH 5, 17 hrs, SID 90756) was 96.1% and the “6555 Remain (%)” value ([5]; mM: ascorbate 5, gentisate 2, NAM 0, metabisulfite 5, hydrosulfite 5, pH 5, 28 hrs, SID 90772) was 82.9%. For the same compound, the “6555 Remain (%)” value ([5]; mM: ascorbate 5, gentisate 2, NAM 0, metabisulfite 5, hydrosulfite 5, pH 5.2, 7 hrs, SID 90786) was 77.4%, the “6555 Remain (%)” value ([5]; mM: ascorbate 5, gentisate 2, NAM 0, metabisulfite 5, hydrosulfite 5, pH 5.2, 26 hrs, SID 90845) was 96.7% and the “6555 Remain (%)” value ([5]; mM: ascorbate 5, gentisate 2, NAM 0, metabisulfite 5, hydrosulfite 5, pH 5.2, 31 hrs, SID 90854) was 77.4%. The “6555 Remain (%)” value ([5]; mM: ascorbate 5, gentisate 2, NAM 5, metabisulfite 0, hydrosulfite 5, pH 5.0, 18 hrs, SID 90755) was 96.2%, the “6555 Remain (%)” value ([5]; mM: ascorbate 5, gentisate 2, NAM 5, metabisulfite 0, hydrosulfite 5, pH 5.0, 27 hrs, SID 90771) was 85.3% and the “6555 Remain (%)” value ([5]; mM: ascorbate 5, gentisate 2, NAM 5, metabisulfite 5, hydrosulfite 0, pH 5.1, 18 hrs, SID 90753) was 95.6%. The “6555 Remain (%)” value ([5]; mM: ascorbate 5, gentisate 2, NAM 5, metabisulfite 5, hydrosulfite 0, pH 5.1, 27 hrs, SID 90769) was 92.8%.
